Assay results: the CheMixHub viscosity set

Assay: xn = mol fraction of the nth substance listed

Clc1cccc(Cl)c1 + CCNc1ccccc1
viscosity [mPa·s], 101 kPa
Conditions	303.15 K	308.15 K
x2 = 0.0725	1.021	0.954
x2 = 0.1256	1.069	0.996
x2 = 0.1956	1.134	1.051
x2 = 0.2687	1.2	1.108
x2 = 0.3369	1.258	1.157
x2 = 0.4056	1.315	1.205
x2 = 0.4856	1.38	1.259
x2 = 0.5598	1.437	1.308
x2 = 0.6235	1.485	1.347
x2 = 0.6925	1.536	1.389
x2 = 0.7759	1.594	1.436
x2 = 0.8596	1.651	1.482
x2 = 0.9125	1.687	1.511

COC(=O)CC(C)=O + CCOC(C)=O
viscosity [mPa·s], 101.33 kPa
Conditions	x1 = 0.0001	x1 = 0.1006	x1 = 0.1979	x1 = 0.2962	x1 = 0.3988	x1 = 0.4978	x1 = 0.5934	x1 = 0.6964	x1 = 0.7983	x1 = 0.9006
298.15 K	0.433	0.488	0.551	0.624	0.711	0.81	0.916	1.051	1.195	1.376
303.15 K	–	0.462	0.519	0.587	0.666	0.755	0.849	0.97	1.099	1.258
308.15 K	–	0.438	0.491	0.553	0.629	0.706	0.792	0.9	1.015	1.155

CCOC(C)=O + CCCCCO
viscosity [mPa·s], 101.33 kPa
Conditions	x1 = 0.1	x1 = 0.2	x1 = 0.3	x1 = 0.4001	x1 = 0.5001	x1 = 0.6036	x1 = 0.7001	x1 = 0.8001	x1 = 0.9
298.15 K	2.349	1.693	1.282	1.011	0.829	–	0.6	0.521	0.472
303.15 K	2.079	1.53	1.161	0.924	0.766	0.644	0.561	0.486	0.446
308.15 K	1.843	1.367	1.053	0.848	0.681	0.599	0.525	0.459	0.392

COC(=O)CC(C)=O + CCCCOC(C)=O
viscosity [mPa·s], 101.33 kPa
Conditions	x1 = 0.1019	x1 = 0.2013	x1 = 0.3015	x1 = 0.4035	x1 = 0.5006	x1 = 0.6004	x1 = 0.7005	x1 = 0.8087	x1 = 0.8989
298.15 K	0.719	0.768	0.826	0.895	0.969	1.055	1.163	1.289	1.407
303.15 K	0.672	0.716	0.768	0.83	0.896	0.973	1.068	1.181	1.284
308.15 K	0.629	0.669	0.717	0.774	0.832	0.901	0.987	1.085	1.179
